Measurements reported in patent US4386075A, “Renally active tetrapeptides” (SmithKline Beckman Corporation, priority 1982, dated 1983).

Key:
[1] = system: anesthetized dogs; experiment: anesthetized dog infusion test (MAP, RBF, RVR, HR); assay type: in vivo; details: for % change HR (heart rate) / % change MAP (mean arterial blood pressure) / % change RBF (renal blood flow) / % change RVR (renal vascular resistance): 1 dog
Source text: In the anesthetized dog protocol discussed above this compound gave the following data: […]

[2] = secondary test
[3] = system: spontaneously hypertensive rat; details: in vivo
[4] = system: toad bladder; details: toad bladder test
[5] = 300 μg/kg/min, anesthetized dog, cumulative effects

4-(4-hydroxyphenyl)-butyryl-L-propyl-D,L-α-methylphenylalanyl-glycyl-L-proline [Example 2]
% change HR (heart rate) ([1]; infusion 3 μg/kg/min): 6%
% change MAP (mean arterial blood pressure) ([1]; infusion 3 μg/kg/min): -5%
% change RBF (renal blood flow) ([1]; infusion 3 μg/kg/min): 17%
% change RVR (renal vascular resistance) ([1]; infusion 3 μg/kg/min): -18%
% change HR (heart rate) ([1]; infusion 30 μg/kg/min): 10%
% change MAP (mean arterial blood pressure) ([1]; infusion 30 μg/kg/min): -9%
% change RBF (renal blood flow) ([1]; infusion 30 μg/kg/min): 16%
% change RVR (renal vascular resistance) ([1]; infusion 30 μg/kg/min): -21%
% change HR (heart rate) ([1]; infusion 300 μg/kg/min): 6%
% change MAP (mean arterial blood pressure) ([1]; infusion 300 μg/kg/min): -6%
% change RBF (renal blood flow) ([1]; infusion 300 μg/kg/min): 14%
% change RVR (renal vascular resistance) ([1]; infusion 300 μg/kg/min): -17%
renal blood flow, cumulative effect ([1]; measured after the normal period of the test, increased from 127 ml/min): 162 mL/min
cardiac rate (HR), cumulative effect ([1]; measured after the normal period of the test, predrug level 140 BPM): 105 BPM
ED15 [2]: 1.9 µg/kg
activity in spontaneously hypertensive rat protocol [3]: not active
diuresis in spontaneously hypertensive rat protocol [3]: slight water diuresis
reversal of antidiuretic hormone activity [4]: inactive

NCCc1ccc(O)c(O)c1 [Dopamine, reference compound]
ED15 ([1]; dog test procedure): about 3 mcg/kg/min
% change HR (heart rate) ([1]; infusion 3 μg/kg/min): 2%
% change MAP (mean arterial blood pressure) ([1]; infusion 3 μg/kg/min): -16%
% change RBF (renal blood flow) ([1]; infusion 3 μg/kg/min): 28%
% change RVR (renal vascular resistance) ([1]; infusion 3 μg/kg/min): -34%
ED15 [2]: 3.5 µg/kg

N-4-(4-hydroxyphenyl)-butyryl-L-prolyl-D-phenylalanyl-glycyl-L-proline [Example 3]
cumulative effect HR [1, 5]: -8
cumulative effect MAP [1, 5]: 0
cumulative effect RBF [1, 5]: +22
cumulative effect RVR [1, 5]: -18
